{"source": "patent US20080269163A1", "about": "“Methods and Compositions for Protecting Cells from Ultrasound-Mediated Cytolysis” (priority 2004, published 2008)", "key": {"HL-60 cells [1]": {"tested_on": "HL-60 cells", "experiment": "Ultrasound-induced cytolysis of HL-60 cells, Coulter counter analysis", "assay_type": "cell-based", "conditions": "HL-60 cells", "description": "Cells: HL-60 myeloid leukemia cells (American Type Culture Collection) were grown in a suspension of RPMI 1640 medium (GIBCO, Gaithersburg, Md.) containing 10% calf serum. The population of HL-60 cells doubled every 23±1 hr (hour ±SEM) when incubated at 37° C. in a CO2 (5%) containing atmosphere. Cells were harvested, re-suspended in fresh RPMI medium and kept at 25° C. until the start of the experiment (typically less than 1 hr). […] The fraction of intact cells before and after ultrasound was determined using a Coulter multisizer (model IIe) connected to a sampling stand (model IIa). The number of intact cells was determined by counting the total number of particles under the bell shaped curve (e.g., FIG. 1a) before and following sonolysis. The cytolysis percentage was determined by subtracting the number of intact cells following sonolysis from the number of intact cells before sonolysis. This value was divided by the number of intact cells before sonolysis and multiplied by 100 to obtain the cytolysis percentage value.\nThe temperature of the coupling water was 25° C.\nWe have confirmed the validity of this technique for studying the effects of sonolysis in our ultrasound system by the trypan blue exclusion assay. The mean size of HL-60 cells was determined from the Coulter counter results prior to sonolysis and was approximately 650 μm3 (FIG. 1a) which equates to a mean cell diameter of […].\n42 kHz sonolysis was conducted in a similar way but using a Branson ultrasound bath (model number 1510). […] At 42 kHz, a transducer was used to decrease the power of the bath to 50% of its original value. The temperature of the coupling water at all frequencies was 25° C.\n(§1) The percentage of cytolysis of HL-60 cells was determined by measurement of the cell size distribution using a Coulter multisizer. This method correlates well with percentage cytolysis measured using the Trypan blue exclusion assay immediately following sonolysis and is explained in detail elsewhere (Miyoshi, N. et al. 2003). […] This immediate ultrasound induced cytolysis (i.e., % cytolysis) is represented in FIGS. 2, 10-12 at a concentration of zero.\n42 kHz sonolysis was conducted in a similar way but using a Branson ultrasound bath (model number […]). […] At 42 kHz, a transducer was used to decrease the power of the bath to 50% of its original value. The temperature of the coupling water at all frequencies was 25° C.\nas §1, with “represented” for “represented in FIGS. 2, 10-12”"}, "HL-60 cells [2]": {"tested_on": "HL-60 cells", "experiment": "Reproduction assay of HL-60 cells following sonolysis", "assay_type": "cell-based", "conditions": "sonolysis, 5 seconds, 10 W; varying concentrations", "description": "Cells were allowed to reproduce for 24 hours. Reproduction fraction ±SD (where n=6 to 8) is calculated by dividing the number of cells counted following 24 hours of reproduction by the number of cells counted at the start of incubation.\nControl data points were run in triplicate with a standard deviation of less than 10%. Sonolysis points represent an average of six separate cell suspensions, with a standard deviation of less than 10%.\nThe reproduction ratio is the number of cells present one or two days post treatment divided by the number of cells present on the treatment day.\nReproduction Assay: for FIG. 5, a reproduction assay was conducted over a period of 10 days to determine the long term viability of cells following ultrasound treatment in the presence of either HGP or OGP at concentrations where 100% protection from cytolysis occurred. The long term viability of treated cell suspensions was compared to the long term viability of untreated control cell suspensions held under exactly the same conditions (FIG. 5). Immediately following sonolysis, a 100 μl aliquot of the 1 ml treated (or control) samples was used for Coulter counter analysis in order to confirm that 100% of the cells had survived the ultrasound treatment. Viability of the cells was determined by using a very small volume (approx. 20 μl) of suspension for trypan blue staining. The remaining ≈0.9 ml cell suspensions were diluted to 3 ml with fresh medium, centrifuged, washed with fresh medium, and finally re-suspended in fresh medium (2 ml). 100 μl of this new 2 ml of cells suspended in fresh medium was then used to determine the cell concentration. This cell concentration is defined as ‘the cell concentration at Day 0 after ultrasound treatment’ (Ci). Cell suspensions were then kept at 37° C. in a 5% CO2 incubator for a total of 10 days.\nOver the 10 day period, cells had to be spun down occasionally and re-suspended in fresh medium to replenish the nutrients necessary for a healthy cell population. 100 μl aliquots of the original cell suspension were used to measure the cell concentration both before (Cfinal) and following (Cinitial) re-suspension in fresh medium. This procedure, although necessary, results in a slight underestimation in the expected number of cells on any given day, when compared to the original cell concentration, Ci. To account for this small, but significant underestimation, we calculated the actual number of cells that would have been observed had we not been periodically extracting small aliquots for the detection of cell numbers by the Coulter counter. This was done by calculating a ‘reproduction ratio’, determined by dividing Cfinal by Cinitial that was measured one or two days earlier and comparing this ratio to (Ci), to give a ‘real cell population’. It should be noted that this calculation is done simply as a matter of convenience and that the reproduction ability of the treated samples was compared to control samples that were treated in the same way over the day period, as shown in FIG. 5. Verification of this method is given by the fact that the cells of the control samples double approximately every day (FIG. 5), as expected for HL-60 cells under the conditions of incubation in the current study."}, "HL-60 cells [3]": {"tested_on": "HL-60 cells", "experiment": "Mechanical fragility test (Burrell wrist action shaker, glass beads), HL-60 cells", "assay_type": "cell-based", "description": "10 ml borosilicate glass beads in a 125 ml conical flask. 10 ml cell suspension in the presence and absence (control) of various glucopyranosides (HGP, HepGP, MGP, and OGP) in a cell culture medium containing 10% DPBS solution. Shaking was conducted over a period of 30 minutes. Each data point represents ±SD, where n=5.\nMechanical Fragility Test: the effect of glucopyranosides on the mechanical fragility of the cells was determined by inducing mechanical shear stress to a cell suspension. This involved placing 10 mL of HL-60 cells in suspension in 125 ml sized screw capped conical flasks containing 10 mL of borosilicate solid-glass beads (Sigma-Aldrich, mean particle diameter of 3 mm), similar to the methods described elsewhere (Carstensen, E. L. et al. 1993; Miller, M. W. et al. 2003). The samples were then shaken in a Burrell wrist action shaker (model number 75, Burrell Scientific, Pittsburgh, Pa.) at 50% power for a duration of 30 minutes. Using this method, up to eight sample solutions could be run at one time. […] In samples containing glucopyranosides, the surfactant was dissolved in 1 ml of DPBS and added to 9 ml of the cell suspension."}, "HL-525 cells [4]": {"tested_on": "HL-525 cells", "experiment": "Sonolysis of HL-525 cells, % cytolysis", "assay_type": "cell-based", "conditions": "5 sec", "description": "Conditions: 42 kHz, 50% power, 5 sec, 20° C., % cytolysis ±SD (n=6).\nConditions: 354 kHz, 15 W, 5 sec, 20° C., % cytolysis ±SD (n=6).\nConditions: 614 kHz, 20 W, 5 sec, 20° C., % cytolysis ±SD (n=6).\nConditions: 1057 kHz, 10 W, 5 sec, 20° C., % cytolysis ±SD (n=6)."}, "HL-525 cells [5]": {"tested_on": "HL-525 cells", "experiment": "Mechanical fragility of HL-525 cells", "assay_type": "cell-based", "conditions": "OGP 3 mM", "description": "Conditions: 50% power, 30 min. shaking, 10 mL borosilicate glass beads, 10 mL cell suspension."}, "various cells": {"tested_on": "various cells", "conditions": "approximately 7 mM to 30 mM OGP for up to 30 minutes; cited from earlier work"}, "HL-60 cells [6]": {"tested_on": "HL-60 cells", "experiment": "Exposure of HL-60 cells to glucopyranosides alone (no ultrasound)", "conditions": "15 minute exposure at highest concentrations used", "quoted_text": "Cell experiments were completed within 5 to 10 minutes of adding the glucopyranosides to the cell suspensions, and each data point represents an average ±SEM, where n=5 to 8. […] For this reason, we only studied the effects of MGP, HGP, HepGP and OGP on the ultrasound induced cytolysis of HL-60 cells."}}, "note": "Entries after “also recorded” stand apart in the source; their conditions may differ."}
{"smiles": "CCCCCCCCO[C@@H]1O[C@H](CO)[C@@H](O)[C@H](O)[C@H]1O", "note": "[OGP, octyl-β-D-Glucopyranoside]", "values": [{"measurement": "effect on ultrasound induced cytolysis (% cytolysis)", "setting": "HL-60 cells [1]; 1.057 MHz (1 MHz), 10 W, 5 s", "value": "fully protects"}, {"measurement": "concentration giving complete (approximately 100%) protection from ultrasound induced cytolysis", "setting": "HL-60 cells [1]; 1.057 MHz (1 MHz), 10 W, 5 s, air exposed", "value": 2, "unit": "mM"}, {"measurement": "effect on ultrasound induced cytolysis", "setting": "HL-60 cells [1]; 42 kHz, 50% power, 5 s", "value": "very small sonosensitization; also recorded: weak sonosensitizer"}, {"measurement": "effect on ultrasound induced cytolysis", "setting": "HL-60 cells [1]; 354 kHz, 15 W, 5 s", "value": "weak sonosensitizer"}, {"measurement": "cell population protected from cytolysis", "setting": "HL-60 cells [1]; 614 kHz", "value": 50, "unit": "%"}, {"measurement": "change of protection from cytolysis as frequency is decreased", "setting": "HL-60 cells [1]; frequency decreased from 1 MHz to 42 kHz", "value": "less effective; also recorded: most affected by the frequency of sonolysis"}, {"measurement": "reproductive viability (reproduction fraction) over 24 hours after sonolysis", "setting": "HL-60 cells [2]", "value": "continue to reproduce at the same rate as untreated control samples"}, {"measurement": "protection from mechanical induced cytolysis", "setting": "HL-60 cells [3]; 30 min shaking, 50% power, HGP 1-10 mM, HepGP 0.1-10 mM, MGP 10-30 mM, OGP 0.3-3 mM", "value": "none of the glucopyranosides tested"}, {"measurement": "effect on mechanical destruction of cells", "setting": "HL-60 cells [3]; OGP 3 mM", "value": "no effect"}, {"measurement": "protective effect for HL-525 cells compared to HL-60 cells", "setting": "HL-525 cells [4]; 1 MHz (1057 kHz), 10 W", "value": "different protection effects; also recorded: smaller protective effect"}, {"measurement": "protective effect for HL-525 cells compared to HL-60 cells", "setting": "HL-525 cells [4]; 614 kHz, 20 W", "value": "much less pronounced; also recorded: smaller protective effect"}, {"measurement": "effect on mechanical destruction of cells", "setting": "HL-525 cells [5]", "value": "significant effect on enhancing mechanical destruction"}, {"measurement": "cytolytic effects", "setting": "various cells", "value": "no cytolytic effects observed"}, {"measurement": "effect on reproduction rate of the cells over 120 hours", "setting": "HL-60 cells [6]", "value": "no detrimental effect"}]}
